Data taken from patent publication US10738074B2, “Cyclic di-nucleotide compounds as STING agonists” (Merck Sharp & Dohme Corp., priority 2015, dated 2020).
Like-named read-outs stand apart in the source and are kept apart here.

Experiments:
[1] = system: THP1 cells; test: IFN-β secretion in THP1 cell culture (5 h); format: cell-based, human; conditions: Homo sapiens, THP-1, 5 h
Method: The ability of compounds to stimulate the secretion of interferon-beta from THP1 cells was measured using a human IFN-β AlphaLISA kit (Perkin Elmer, Cat. No. AL265F). The basic protocol is as follows:
A Labcyte Echo 550 acoustic dispenser was used to transfer 120 nL of compound dissolved in DMSO into the wells of an empty, sterile 384-well microplate, (Corning, Cat. No. 3712). THP1 cells (American Type Culture Collection, Cat. No. TIB202) previously frozen in Recovery Medium (Life Technologies, Cat. No. 12648-010) were thawed and immediately diluted 10-fold into 37° C. assay medium (RPMI 1640+L-Glutamine & phenol red, Life Technologies, Cat. No. 11875-085; 0.5% heat inactivated fetal bovine serum, Sigma Aldrich, Cat. No. F4135; 1 mM Sodium Pyruvate, Life Technologies, Cat. No. 11360-070; lx non-essential amino acids; Life Technologies, Cat. No. 11140-050). The cell viability and count was ascertained using a Beckman Coulter V-Cell XR cell counter. The cells suspension was centrifuged at 200×g for 5 min at RT. Cells were resuspended to a density of 0.8×10^6/mL in 37° C. assay medium. Subsequent liquid transfers were performed using either a Matrix electronic multichannel pipette or an Agilent Bravo Automated Liquid Handling Platform.
The assay was started by dispensing 40 μL of the previously prepared cell suspension into the wells of the plate containing compounds. After 5 h incubation at 37° C., 5% CO2 in a humidified atmosphere, the plate of cells and compounds was centrifuged at 200×g for 5 min at RT. From each well, 5 μL of supernatant was transferred into corresponding wells of a white 384-well plate (Perkin Elmer, Cat. No. 6005620). To these supernatant-containing wells was added 10 μL of 5× Anti-Analyte Acceptor beads (50 μg/mL of AlphaLISA HiBlock Buffer) and incubated for 30 min at RT while shaking on an orbital plate shaker. To each well was added 10 μL of 5× Biotinylated Antibody Anti-analyte (5 nM in AlphaLISA HiBlock Buffer) and incubated on an orbital plate shaker for 60 min at RT or overnight at 4° C. To each well was added 25 μL of 2× SA-Donor beads (80 μg/mL in AlphaLISA HiBlock Buffer) and incubated for 30-45 min at RT in the dark while shaking on an orbital plate shaker. The plate was then read on a Perkin Elmer Envision (λex=680 nm, λem=[…]). The percent effect of the AlphaLISA signal at each compound concentration was calculated based on 30 uM cGAMP positive controls and 0.3% DMSO negative controls. The plot of percent effect versus the log of compound concentration was fit with a 4-parameter concentration response equation to calculate EC50 values. The test compounds were tested at concentrations 30000, 10000, 3333, 1111, 370.4, 123.4, 41.2, 13.7, 4.6, and 1.5 nM with 0.3% residual DMSO.
Compounds of the disclosure were evaluated for IFN-β secretion in THP1 cell culture as described above. The following table tabulates the biological data for these compounds as percent activation relative to 2′3′-cGAMP at the 30 μM concentration.

[2] = biological target: full-length HAQ STING (Homo sapiens (Human), UniProt Q86WV6, G230A/H232R/R293Q/R71H); test: 3H-cGAMP filtration binding assay (HAQ STING); conditions: competition with tritiated cGAMP, HAQ STING membrane
full-length HAQ STING, sequence (Q86WV6 other isoform, or with tags, fused parts or gaps, stated change not applied): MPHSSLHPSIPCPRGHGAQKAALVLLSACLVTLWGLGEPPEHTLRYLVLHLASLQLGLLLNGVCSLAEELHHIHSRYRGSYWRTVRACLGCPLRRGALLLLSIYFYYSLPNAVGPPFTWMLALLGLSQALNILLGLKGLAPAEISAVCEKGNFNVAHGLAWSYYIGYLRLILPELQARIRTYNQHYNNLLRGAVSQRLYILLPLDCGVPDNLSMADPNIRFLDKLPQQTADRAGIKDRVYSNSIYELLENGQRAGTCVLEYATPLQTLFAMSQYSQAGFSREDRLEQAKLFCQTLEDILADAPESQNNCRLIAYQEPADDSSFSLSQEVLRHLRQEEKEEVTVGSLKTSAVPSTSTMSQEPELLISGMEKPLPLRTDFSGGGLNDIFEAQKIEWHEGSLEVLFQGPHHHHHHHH
Description: (§1) The ability of compounds to bind STING is quantified by the ability to compete with tritiated cGAMP ligand for human STING receptor membrane using a radioactive filter-binding assay. The binding assay employs STING receptor obtained from Hi-Five cell membranes overexpressing full-length HAQ STING prepared in-house and tritiated cGAMP ligand also purified in-house.
as §1, with “their” for “the”, “Trichoplusia ni” for “Hi-Five”, “membranes (Tni; Expression Systems, cat #94-002F, www.exrpressionsystems.com)” for “membranes”
The basic HAQ STING filtration assay protocol is as follows:
Compound and membrane then preincubated for 60 min at RT to allow compound binding to equilibrate. Following equilibration, 8 nM of [^3H] c-GAMP ligand was prepared by diluting into assay buffer, and 50 uL of this working stock was then manually added to each well of the assay plate. […] The filter plates were then dried at 55° C. for 30 min using a pressurized VWR oven before 30 uL of Ultima GoldF scintillate was added to each well. Tritium levels for each reaction well were then measured using a PerkinElmer TopCount plate reader.
After normalization to controls, the percent activity for each compound concentration was calculated by measuring the amount of remaining radioactivity. The plot of percent activity versus the log of compound concentration was fit with a 4-parameter dose response equation to calculate EC50 values.

[3] = IFN-β secretion, THP1 cells, 5 h, 30 μM, read-out: % Effect at 30 μM relative to 2′3′-cGAMP

Row | Structure (SMILES) | activation at 30 µM ([1]; read-out: % Effect at 30 μM relative to 2′3′-cGAMP, IFN-β secretion, THP1 cells, 5 h, 30 μM) [%] | activation at 30 µM [1, 3] [%] | EC50 [2] [nM]
1 | [N-]=[N+]=N[C@H]1[C@H]2OP(O)(=S)OC[C@H]3O[C@@H](n4cnc5c(=O)[nH]c(N)nc54)[C@H](OP(O)(=S)OC[C@H]1O[C@H]2n1cnc2c(N)ncnc21)[C@@H]3F (single isomer, unassigned) [Example 18] | 118 | – | –
2 | Nc1nc2c(ncn2[C@@H]2O[C@@H]3COP(=O)(S)O[C@@H]4[C@H](O)[C@@H](COP(=O)(S)O[C@@H]2[C@@H]3O)O[C@H]4n2cnc3c(=O)[nH]c(N)nc32)c(=O)[nH]1 (single isomer, unassigned) [Example 25] | – | 89 | –
3 | Nc1nc2c(ncn2[C@@H]2O[C@@H]3COP(=O)(S)OC4C(O)[C@@H](COP(=O)(S)OC2[C@@H]3O)O[C@H]4n2cnc3c(N)ncnc32)c(=O)[nH]1 (stereo in doubt) [Example 15, 2-amino-9-[(1R,6R,8R,9R,14R,16R,17R,18R)-16-(6-amino-9H-purin-9-yl)-17,18-dihydroxy-3,11-dioxido-3,11-disulfanyl-2,4,7,10,12,15-hexaoxa-3,11-diphosphatricyclo[12.2.1.1^6,9]octadec-8-yl]-1,9-dihydro-6H-purin-6-one] | – | 132 | –
4 | Nc1nc2c(ncn2[C@@H]2O[C@@H]3COP(=O)(O)O[C@@H]4C[C@@H](COP(=O)(O)O[C@@H]2[C@@H]3O)O[C@H]4n2cnc3c(N)ncnc32)c(=O)[nH]1 [Example 1, 2-amino-9-[(1R,6R,8R,9R,14S,16R,18R)-16-(6-amino-9H-purin-9-yl)-3,11,18-trihydroxy-3,11-dioxido-2,4,7,10,12,15-hexaoxa-3,11-diphosphatricyclo[12.2.1.1^6,9]octadec-8-yl]-1,9-dihydro-6H-purin-6-one] | – | 121 | 19
5 | Nc1nc2c(ncn2[C@@H]2O[C@@H]3COP(=O)(O)O[C@@H]4[C@H](O)[C@@H](COP(=O)(O)O[C@@H]2C3)O[C@H]4n2cnc3c(N)ncnc32)c(=O)[nH]1 [Example 2, 2-amino-9-[(1R,6S,8R,9R,14R,16R,17R)-16-(6-amino-9H-purin-9-yl)-3,11,17-trihydroxy-3,11-dioxido-2,4,7,10,12,15-hexaoxa-3,11-diphosphatricyclo[12.2.1.1^6,9]octadec-8-yl]-1,9-dihydro-6H-purin-6-one] | – | 123 | 18.2
6 | Nc1nc2c(ncn2[C@@H]2O[C@@H]3COP(=O)(O)O[C@@H]4[C@H](O)[C@@H](COP(=O)(O)O[C@@H]2[C@@H]3F)O[C@H]4n2cnc3c(N)ncnc32)c(=O)[nH]1 [Example 3, 2-amino-9-[(1R,6R,8R,9S,14R,16R,17R,18R)-16-(6-amino-9H-purin-9-yl)-18-fluoro-3,11,17-trihydroxy-3,11-dioxido-2,4,7,10,12,15-hexaoxa-3,11-diphosphatricyclo[12.2.1.1^6,9]octadec-8-yl]-1,9-dihydro-6H-purin-6-one] | – | 150 | 3.6
7 | Nc1nc2c(ncn2[C@@H]2O[C@@H]3COP(=O)(O)O[C@@H]4[C@H](F)[C@@H](COP(=O)(O)O[C@@H]2[C@@H]3O)O[C@H]4n2cnc3c(N)ncnc32)c(=O)[nH]1 [Example 4, 2-amino-9-[(1S,6R,8R,9R,14R,16R,17R,18R)-16-(6-amino-9H-purin-9-yl)-17-fluoro-3,11,18-trihydroxy-3,11-dioxido-2,4,7,10,12,15-hexaoxa-3,11-diphosphatricyclo[12.2.1.1^6,9]octadec-8-yl]-1,9-dihydro-6H-purin-6-one] | – | 104 | 1.8
8 | [N-]=[N+]=N[C@H]1[C@H]2OP(=O)(O)OC[C@H]3O[C@@H](n4cnc5c(N)ncnc54)[C@H](OP(=O)(O)OC[C@H]1O[C@H]2n1cnc2c(=O)[nH]c(N)nc21)[C@@H]3O [Example 5, 2-amino-9-[(1R,6S,8R,9R,14R,16R,17R,18R)-16-(6-amino-9H-purin-9-yl)-18-azido-3,11,17-trihydroxy-3,11-dioxido-2,4,7,10,12,15-hexaoxa-3,11-diphosphatricyclo[12.2.1.1^6,9]octadec-8-yl]-1,9-dihydro-6H-purin-6-one] | – | 145 | < 1
9 | C[C@H]1OP(=O)(O)O[C@@H]2[C@H](F)[C@@H](COP(=O)(O)O[C@@H]3[C@H](O)[C@@H]1O[C@H]3n1cnc3c(N)ncnc31)O[C@H]2n1cnc2c(=O)[nH]c(N)nc21 [Example 7, 2-amino-9-[(1R,6R,8R,9S,13R,14S,16R,17R,18R)-16-(6-amino-9H-purin-9-yl)-18-fluoro-3,11,17-trihydroxy-13-methyl-3,11-dioxido-2,4,7,10,12,15-hexaoxa-3,11-diphosphatricyclo[12.2.1.16,9]octadec-8-yl]-1,9-dihydro-6H-purin-6-one] | – | 59 | 45.2
10 | Nc1nc2c(ncn2[C@@H]2O[C@@H]3COP(=O)(O)O[C@@H]4[C@H](F)[C@@H](COP(=O)(O)O[C@@H]2C3)O[C@H]4n2cnc3c(N)ncnc32)c(=O)[nH]1 [Example 10, 2-amino-9-[(1S,6S,8R,9R,14R,16R,17R)-16-(6-amino-9H-purin-9-yl)-17-fluoro-3,11-dihydroxy-3,11-dioxido-2,4,7,10,12,15-hexaoxa-3,11-diphosphatricyclo[12.2.1.1^6,9]octadec-8-yl]-1,9-dihydro-6H-purin-6-one] | – | 87 | –
11 | Nc1nc2c(ncn2[C@@H]2O[C@@H]3COP(=O)(S)O[C@@H]4[C@H](O)[C@@H](COP(=O)(S)O[C@@H]2[C@@H]3O)O[C@H]4n2cnc3c(N)ncnc32)c(=O)[nH]1 (stereo partly drawn) [Example 14, 2-amino-9-[(1R,6R,8R,9R,14R,16R,17R,18R)-16-(6-amino-9H-purin-9-yl)-17,18-dihydroxy-3,11-dioxido-3,11-disulfanyl-2,4,7,10,12,15-hexaoxa-3,11-diphosphatricyclo[12.2.1.1^6,9]octadec-8-yl]-1,9-dihydro-6H-purin-6-one] | – | 150 | –
12 | Nc1nc2c(ncn2[C@@H]2O[C@@H]3COP(=O)(O)O[C@@H]4[C@H](O)[C@@H](COP(=O)(O)O[C@@H]2[C@@H]3N)O[C@H]4n2cnc3c(N)ncnc32)c(=O)[nH]1 [Example 32, 2-amino-9-[(1R,6S,8R,9R,14R,16R,17R,18R)-18-amino-16-(6-amino-9H-purin-9-yl)-3,11,17-trihydroxy-3,11-dioxido-2,4,7,10,12,15-hexaoxa-3,11-diphosphatricyclo[12.2.1.1^6,9]octadec-8-yl]-1,9-dihydro-6H-purin-6-one] | – | – | 1.9
